Series [1] relates to RVFV MP-12. The series is classed as cell-based, Rift Valley fever virus. As to conditions: for RVFV RNA after lipopeptide pretreatment: 10μg/mL for 4h.
Series [2] concerns Ifit2, Cxcl10, Tnfa, Cxcl1 RNA. The series is classed as cell-based, rat.
The test system of series [3] is RVFV MP-12. The series is classed as cell-based, Rift Valley fever virus. Also noted: relative RVFV infection in neurons treated with TLR2 ligands, Rep 1 / relative RVFV infection in neurons treated with TLR2 ligands, Rep 2: unit not given here.
The subject of the next series is La Crosse virus (LACV). In kind it is cell-based.
The subject of series [4] is VSV-GFP. In kind it is cell-based, vesicular stomatitis virus.
Series [5] relates to VSV-RVFV (recombinant VSV expressing RVFV glycoproteins Gn and Gc). In kind it is cell-based, vesicular stomatitis virus / RVFV ZH501 glycoproteins.
Series [6] concerns RVFV MP-12. The series is classed as cell-based, Rift Valley fever virus. The following applies: 24h.
The next series has as its system RVFV-DiD. In kind it is cell-based, Rift Valley fever virus. As to conditions: 1h.
The subject of series [7] is RVFV MP-12. The series is classed as cell-based, Rift Valley fever virus. As to conditions: 10μg/mL for 4h; 15h.
The subject of series [8] is RVFV MP-12. In kind it is cell-based, Rift Valley fever virus.
In series [9] the test system is VSV-RVFV (recombinant VSV expressing RVFV glycoproteins Gn and Gc). The series is classed as cell-based, vesicular stomatitis virus / RVFV ZH501 glycoproteins. The following applies: 14h.
For series [10], the system named is RVFV MP-12. In kind it is cell-based, Rift Valley fever virus. The source holds these as a separate data set.
For series [11], the system named is RVFV MP-12. In kind it is cell-based, Rift Valley fever virus. As to conditions: 10μg/mL.
In series [12] the test system is RVFV MP-12. In kind it is cell-based, Rift Valley fever virus. The following applies: 10μg/mL. This is another data set of the same source.
Series [13] has as its system RVFV MP-12. The series is classed as cell-based, Rift Valley fever virus. This is another data set of the same source.
Series [14] has as its system RVFV MP-12. In kind it is cell-based, Rift Valley fever virus. The source holds these as a separate data set.
For series [15], the system named is RVFV ZH501. Details: species or system mouse (C57BL/6). The following applies: mouse, in vivo.
For series [16], the system named is RVFV ZH501. Details: species or system mouse (C57BL/6). The following applies: mouse, in vivo. This is another data set of the same source.
Series [17] concerns RVFV ZH501. Also noted: species or system mouse (C57BL/6). The following applies: mouse, in vivo. This is another data set of the same source.
Series [18] concerns RVFV ZH501. Also noted: species or system mouse (C57BL/6). As to conditions: mouse, in vivo. This is another data set of the same source.
The test system of series [19] is RVFV MP-12.
Series [20] relates to VSV-GFP. The following applies: 2 h.
The test system of series [21] is RVFV ZH501. The following applies: mouse, in vivo.

“And” between values parts separate entries of the source, which are not always exact repeats. Equal entries are not always repeated. Where two headings read alike, the source gives them in different places. Peptide text beside a SMILES is read from it. * marks the point of attachment. X1 = CCCCCCCCCCCCCCCC(=O)OCC(C*)OC(=O)CCCCCCCCCCCCCCC; Palmitoyl = CCCCCCCCCCCCCCCC(=O)*

Regarding Pam2CSK4, in the series with RVFV MP-12 [1], the “Rel. Fold change RVFV RNA” value was 0.741 and 1.189; the “RVFV RNA after lipopeptide pretreatment” value was “no antiviral effect”. In series [2], the “Rel. Fold change Cxcl1 RNA” value was 1030.97 and 740.202; the “Rel. Fold change Tnfa RNA” value is 157.572 and 100.256. Besides, the “inflammatory gene transcription (Tnfa, Cxcl1, Cxcl10)” value in series [2] (10μg/mL for 4h) was “induced inflammatory gene transcription”. Further, in the series on RVFV MP-12 [3], the “RVFV infection in neurons in screen” value is “did not decrease RVFV infection”; the “Rep 1 rel infection” value was 1.076 and 1.061; the “relative RVFV infection in neurons treated with TLR2 ligands, Rep 1” value (“relative RVFV infection … Rep 1” for short) turned out to be 106.055; the “relative RVFV infection in neurons treated with TLR2 ligands, Rep 2” value (“relative RVFV infection … Rep 2” below) was 122.343. For the same compound, in the series with La Crosse virus (LACV), the “Rel. LACV RNA” value was 0.9766 and 0.5238 and 0.6648 and 0.9475; the “antiviral effect on LACV (qPCR and microscopy)” value is reported as “no antiviral effect”. Besides, the “VSV RNA replication” value with VSV-GFP [4] was “no antiviral effect”. In addition, in [5], the “Rel. VSV-RVFV RNA” value was 0.4225 and 0.2236 and 0.215; the VSV-RVFV replication result is listed as “also reduced VSV-RVFV infection, although it was significantly weaker than Pam3CSK4”.

Regarding 2'3'-c-di-AMP, in the series with RVFV MP-12 [3], the “Rep 1 rel infection” value was 1.031 and 1.083; the “Rep 2 rel infection” value is 1.123 and 1.1792.

IKK 16: in [2], the “transcription of NF-κB target genes Tnfa and Cxcl1 after Pam3CSK4 stimulation” value is given as “blunted transcription”.

With `CO/C1=C\C(C)=C\[C@@H](C)[C@@H](O)[C@@H](C)C/C(C)=C/C=C/[C@H](OC)[C@@H]([C@@H](C)[C@@H](O)[C@H](C)[C@@]2(O)C[C@@H](O)[C@H](C)[C@@H](C(C)C)O2)OC1=O` [BafA, bafilomycin A1], in the series on RVFV MP-12 [6], the “RVFV infection after pulse at pH 7.6” value was “blocked infection” and the “RVFV infection in acid-washed cells (pH 5.2)” value is “did not block infection”. In the series on RVFV-DiD, the “number, intensity, and area of DiD puncta” value is listed as “decreased”.

For the compound `CCNCc1nc2c(N)nc3ccccc3c2n1CC(C)(C)O` [Gardiquimod], in the series with rat cortical neurons, the “neurotoxicity in screen (relative survival of neurons)” value is “neurotoxic”.

Consider FSL-1, for which, in the series with RVFV MP-12 [3], the “relative RVFV infection … Rep 1” value is on record as 105.077 and the “relative RVFV infection … Rep 2” value is given as 120.652.

In the case of `CCCCCCCCCCCCCCCC(=O)N[C@@H](CSCC(COC(=O)CCCCCCCCCCCCCCC)OC(=O)CCCCCCCCCCCCCCC)C(=O)N[C@@H](CO)C(=O)N[C@@H](CCCCN)C(=O)N[C@@H](CCCCN)C(=O)N[C@@H](CCCCN)C(=O)N[C@@H](CCCCN)C(=O)O` (some centres unmarked) [Pam3CSK4] (Palmitoyl-C(X1)SKKKK-OH), in the series with RVFV MP-12 [7], the RVFV titers is 3.7 x 10^4 PFU / mL and 3.2 x 10^4 PFU / mL. Also, the “RVFV RNA after lipopeptide pretreatment” value in the series with RVFV MP-12 [1] is listed as “decreased RVFV RNA”. Also, the “RVFV RNA levels in the presence of TPCA-1 or IKK 16” value with RVFV MP-12 [1] (10μg/mL, 24h) is “significantly decreased”. Further, in the series on RVFV MP-12 [3], the “infection relative to vehicle in screen” value was “below 60 % of vehicle”. Also, the “relative RVFV infection … Rep 1” value in the series with RVFV MP-12 [3] amounted to 26.2716. For the same compound, the “relative RVFV infection … Rep 2” value with RVFV MP-12 [3] worked out at 51.9474. For the same compound, the “Rep 1 rel infection” value in the series on RVFV MP-12 [8] is 1.242 and 0.7928. The “Rep 2 rel infection” value in the series with RVFV MP-12 [8] is 1.2338 and 0.6802. Besides, in the series with VSV-GFP [4], the “VSV RNA replication” value is reported as “unchanged”. Further, the VSV-RVFV replication entry in [5] and in [9] was “decreased VSV-RVFV replication” in each case. In addition, the “Neutralization (relative RVFV infection)” value in the series on RVFV MP-12 [10] was 1.27 and 1.194 and 1.159 and 1.08. In addition, the “RVFV infection, neutralization condition” value in the series with RVFV MP-12 [10] (24 hours) is reported as “failed to neutralize RVFV”. Further, the “viral RNA bound to cells” value in the series on RVFV MP-12 [11] and with RVFV MP-12 [12] was “did not change” in each case. Moreover, the “internalized RVFV RNA” value in the series with RVFV MP-12 [13] and with RVFV MP-12 [14] was “no difference” throughout. Besides, the “RVFV infection in DMSO treated cells” value in the series with RVFV MP-12 [6] (10μg/mL) is recorded as “inhibited RVFV infection”. The “RVFV infection in acid-washed, BafA-treated cells” value with RVFV MP-12 [6] (10μg/mL, pH 5.2) was “decreased RVFV infection”. The “number, intensity, and area of DiD puncta” value in the series on RVFV-DiD is on record as “decreased”. Further, the “decrease of viral replication in the brain” value in the series on RVFV ZH501 [15] is “more than 5 logs”. Further, in the series with RVFV ZH501 [16], the “Neurologic disease at 3dpi? No (number of mice)” value is 2 and 3. For the same compound, the “Neurologic disease at 3dpi? Yes (number of mice)” value in the series with RVFV ZH501 [16] is 0. In addition, the “mice with signs of severe (neurologic) disease” value with RVFV ZH501 [16] was “zero out of three and 0/3”. In addition, the “RVFV titers in the liver” value with RVFV ZH501 [17] is listed as “significantly decreased”. Further, the “RVFV nucleoprotein immunofluorescence in brain and liver” value in the series with RVFV ZH501 [18] was “decreased viral replication in the brain and liver”. Also, the “hemorrhages caused by RVFV in the liver (H & E)” value with RVFV ZH501 [18] is recorded as “reduced hemorrhages”. In addition, the “Mouse cortical neurons Rel. infection” value with RVFV MP-12 [19] (0.016 ug/mL) was 0.9744 and 0.948 and 1.028; in the series on RVFV MP-12 [19] (0.08 ug/mL), 1.018 and 0.9269 and 0.9842; in the series with RVFV MP-12 [19] (0.4 ug/mL) it was 1.0033 and 0.9456 and 0.9907; in the series with RVFV MP-12 [19] (2 ug/mL), 1.058 and 0.9085 and 1.0272; with RVFV MP-12 [19] (10 ug/mL), 0.3619 and 0.3566 and 0.3035. Further, the “IC50 against VSV” value in the series with VSV-GFP [20] was above 10 µg/mL. Besides, the “survival of mice treated with Pam3CSK4 alone” value with RVFV ZH501 [21] is “all mice treated with Pam3CSK4 alone survived”.

In the case of `CC(C)Cn1cnc2c(N)nc3ccccc3c21` [Imiquimod], the “neurotoxicity in screen (relative survival of neurons)” value in the series on rat cortical neurons was “neurotoxic”.

With `NC(=O)Nc1sc(-c2ccc(F)cc2)cc1C(N)=O` [TPCA-1, 2-[(aminocarbonyl)amino]-5-(4-fluorophenyl)-3-thiophenecarboxamide], the “transcription of NF-κB target genes Tnfa and Cxcl1 after Pam3CSK4 stimulation” value in series [2] is reported as “blunted transcription”.
